System: 993429-296-R-J1-PDC complex spheroid growth, percent test/control
Experiment: Anticancer human tumor 993429-296-R-J1-PDC patient-derived uterine sarcoma cell line growth inhibition [Asc]
Settings: for IC50: curve of first compound; for viability, T/C: stronger effect = lower value
Method: Multicellular complex tumor spheroid response to apoptosis pathway targeting inhibitors Alrizomadlin, Pelcitoclax, and Dasminapant in combination with a variety of drugs and investigational agents in selected tumor cell lines
The MDM2 inhibitor alrizomadlin, the Bcl-2/Bcl-xL inhibitor pelcitoclax, and the IAPs inhibitor dasminapant were evaluated both individually and in combination with standard of care and investigational anticancer small molecules within a complex spheroid model of solid tumors. . Complex spheroids include a stromal component modeled by human endothelial cells (HUVEC) and fibroblasts modeled by human mesenchymal stem cells (MSCs). The concentration ranges selected for each drug and investigational agent were based upon clinically achievable concentrations if the clinical Cmax of the agent was known.
Compounds. The drugs and investigational agents: alrizomadlin (APG-115; NSC831270), pelcitoclax (APG-1252; NSC835773), dasminapant (APG-1387;NSC834197), TAK-243 (NSC785004), copanlisib (NSC809693), olaparib (NSC753686), talazoparib (NSC767125), cobimetinib (NSC 768068), eltanexor (KPT-8602, NSC 794443), abemaciclib (NSC 768073), sotorasib (NSC818433), adagrasib (NSC 831453), MRTX-1133 (NSC 836407), Iadademestat (ORY1001, NSC 806812), and RMC-4630 (NSC839698), were obtained from the NCI Developmental Therapeutics Program Chemical Repository. The FDA-approved anticancer drug set is available from the Developmental Therapeutics Program at https://dtp.cancer.gov/organization/dscb/obtaining/available plates.htm. […] The stock solutions were prepared in dimethyl sulfoxide (DMSO, Sigma-Aldrich, St. Louis, MO, cat. D2650) at 800-fold the tested concentration and stored at -70 degrees C prior to their use. All drugs and investigational agents were tested over a range starting from a high concentration at or near the clinical Cmax and decreasing in half-log increments. If the clinical Cmax for an agent had not been determined, the highest concentration tested was 10 microM.
The patient-derived cancer (PDC) cell lines include five colon adenocarcinomas: 186277-243-T-J2-PDC, 616215-338-R-J1-PDC, 439559-082-T-J2-PDC, 463943-066-T-J2-PDC, and 519858-162-T-J1-PDC; three pancreatic carcinomas: 323965-272-R-J2-PDC, 521955-158-R6-J3-PDC, and 521955-158-R2-J5-PDC; two uterine sarcomas: 327498-152-R-J2-PDC and 993429-296-R-J1-PDC; two rhabdomyosarcomas: 755483-174-R-J1-PDC and 772245-204-R-J1-PDC; two soft tissue sarcomas: 126254-015-R-J1-PDC and 494315-158-R-J1-PDC; two malignant fibrous histiocytomas: 317291-083-R-J1-PDC and 596521-263-R-J1-PDC; two breast carcinomas: 171881-019-R-J1-PDC and 885512-296-R-J2-PDC; and one ovarian carcinoma: 6556581-035-R-J-PDC were obtained from the NCI PDMR, (https://pdmr.cancer.gov). The established cell lines HSSY-2 synovial sarcoma (RRID:CVCL 8719), SYO-1 synovial sarcoma (RRID:CVCL_7146), MPNST malignant peripheral neural sheath tumor were obtained from the Sloan Kettering Institute. The following established cell lines were purchased from the American Type Culture Collection (ATCC, Manassas, VA), Sor the received from the NCI repository:, PANC-1 pancreatic carcinoma (CRL-1469, RRID:CVCL_0480), OVCAR-5 ovarian carcinoma (RRID:CVCL_1628), OVCAR-8 ovarian carcinoma (RRID:CVCL_1629), , MCF-7 breast carcinoma (CRL-12584, RRID:CVCL_0031), MDA-MB-231 breast carcinoma (CRL-12532, RRID:CVCL_0062), NCI-H1876 small cell lung carcinoma (CRL-5902, RRID:CVCL_1503), NCI-H510A small cell lung carcinoma (HTB-184, RRID:CVCL_1565), NCI-H1417 (CRL-5869, RRID:CVCL_1469), and NCI-H196 small cell lung carcinoma (CRL-5823, RRID:CVCL_1509). Dr. Peter Houghton (Greehey Children's Cancer Research Institute, University of Texas Health Science Center, San Antonio, TX) provided Rh-18 rhabdomyosarcoma (RRID:CVCL_1659). Pooled donor human umbilical vein endothelial cells (HUVEC, Lonza, cat. CC-2519) and human mesenchymal stem cells (hMSC, Lonza, cat. PT-2501) were purchased from Lonza (Walkersville, MD).
Cell Culture. […]

[1] = second compound 0.1 µM, first compound 0.0316 µM
[2] = second compound 0.1 µM, first compound 0.1 µM
[3] = second compound 0.316 µM, first compound 0.0316 µM
[4] = second compound 0.316 µM, first compound 0.1 µM
[5] = second compound 1 µM, first compound 0.0316 µM
[6] = second compound 1 µM, first compound 0.1 µM
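Also: spheroids exposed to compounds for seven days.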

`C#Cc1c(F)ccc2cc(O)cc(-c3ncc4c(N5CC6CCC(C5)N6)nc(OCC56CCCN5CC(F)C6)nc4c3F)c12` (stereo not given) + CNC(C)C(=O)NC1CN(S(=O)(=O)c2cccc(S(=O)(=O)N3CCC4CCC(C(=O)NC(c5ccccc5)c5ccccc5)N4C(=O)C(NC(=O)C(C)NC)C3)c2)CCC2CCC(C(=O)NC(c3ccccc3)c3ccccc3)N2C1=O gave an IC50 (second compound 0.01 µM) of 4700 nM, an IC50 (second compound 0.0316 µM) of 4620 nM and an IC50 (second compound 0.1 µM) of 2630 nM. The IC50 (second compound 0.316 µM) was 3310 nM, the IC50 (second compound 1 µM) was < 31.6 nM and the viability, T/C (second compound 0.01 µM, first compound 0.0316 µM) was 71.7%. The viability, T/C (second compound 0.01 µM, first compound 0.1 µM) was 67.2%, the viability, T/C (second compound 0.01 µM, first compound 0.316 µM) was 69.5% and the viability, T/C (second compound 0.01 µM, first compound 1 µM) was 57.3%. It also gave a viability, T/C (second compound 0.01 µM, first compound 3.16 µM) of 64.3%, a viability, T/C (second compound 0.01 µM, first compound 10 µM) of 25.6% and a viability, T/C (second compound 0.0316 µM, first compound 0.0316 µM) of 58.8%. The viability, T/C (second compound 0.0316 µM, first compound 0.1 µM) was 66.6%, the viability, T/C (second compound 0.0316 µM, first compound 0.316 µM) was 56.5% and the viability, T/C (second compound 0.0316 µM, first compound 1 µM) was 67.4%. For the same compound, the viability, T/C (second compound 0.0316 µM, first compound 3.16 µM) was 60.5%, the viability, T/C (second compound 0.0316 µM, first compound 10 µM) was 28% and the viability, T/C [1] was 61%. The viability, T/C [2] was 62.1%, the viability, T/C (second compound 0.1 µM, first compound 0.316 µM) was 67.1% and the viability, T/C (second compound 0.1 µM, first compound 1 µM) was 61.7%. It also gave a viability, T/C (second compound 0.1 µM, first compound 3.16 µM) of 47.7%, a viability, T/C (second compound 0.1 µM, first compound 10 µM) of 28.4% and a viability, T/C [3] of 45.2%. For the same compound, the viability, T/C [4] was 55.8%, the viability, T/C (second compound 0.316 µM, first compound 0.316 µM) was 43.3% and the viability, T/C (second compound 0.316 µM, first compound 1 µM) was 48.8%. For the same compound, the viability, T/C (second compound 0.316 µM, first compound 3.16 µM) was 64.7%, the viability, T/C (second compound 0.316 µM, first compound 10 µM) was 16.3% and the viability, T/C [5] was 49.9%. For the same compound, the viability, T/C [6] was 50.2%, the viability, T/C (second compound 1 µM, first compound 0.316 µM) was 39.5% and the viability, T/C (second compound 1 µM, first compound 1 µM) was 58%. For the same compound, the viability, T/C (second compound 1 µM, first compound 3.16 µM) was 50.2% and the viability, T/C (second compound 1 µM, first compound 10 µM) was 25%.
For `NC1CCC(NC2CC2c2ccccc2)CC1` (stereo not given) + Cc1c(S(C)(=O)=O)c(-c2cc(F)cc(N3CCN(c4ccc(NS(=O)(=O)c5ccc(NC(CCN6CCC(C(=O)OCCCP(=O)(O)O)CC6)CSc6ccccc6)c(S(=O)(=O)C(F)(F)F)c5)cc4)CC3)c2)c(-c2ccc(Cl)cc2)n1C(C)C, the IC50 (second compound 0.1 µM) was > 100 nM, the IC50 (second compound 0.316 µM) was 8.25 nM and the IC50 (second compound 1 µM) was < 0.316 nM. For the same compound, the IC50 (second compound 3.16 µM) was < 0.316 nM, the IC50 (second compound 10 µM) was < 0.316 nM and the viability, T/C (second compound 0.1 µM, first compound 0.000316 µM) was 72.7%. The viability, T/C (second compound 0.1 µM, first compound 0.001 µM) was 65.1%, the viability, T/C (second compound 0.1 µM, first compound 0.00316 µM) was 65% and the viability, T/C (second compound 0.1 µM, first compound 0.01 µM) was 57.6%. It also gave a viability, T/C [1] of 65.2%, a viability, T/C [2] of 65.3% and a viability, T/C (second compound 0.316 µM, first compound 0.000316 µM) of 61.2%. For the same compound, the viability, T/C (second compound 0.316 µM, first compound 0.001 µM) was 60.9%, the viability, T/C (second compound 0.316 µM, first compound 0.00316 µM) was 57% and the viability, T/C (second compound 0.316 µM, first compound 0.01 µM) was 46.4%. It also gave a viability, T/C [3] of 47.9%, a viability, T/C [4] of 51.6% and a viability, T/C (second compound 1 µM, first compound 0.000316 µM) of 32.5%. It also gave a viability, T/C (second compound 1 µM, first compound 0.001 µM) of 30.4%, a viability, T/C (second compound 1 µM, first compound 0.00316 µM) of 29.1% and a viability, T/C (second compound 1 µM, first compound 0.01 µM) of 30.5%. It also gave a viability, T/C [5] of 28.3%, a viability, T/C [6] of 35.4% and a viability, T/C (second compound 3.16 µM, first compound 0.000316 µM) of 27%. The viability, T/C (second compound 3.16 µM, first compound 0.001 µM) was 28.9%, the viability, T/C (second compound 3.16 µM, first compound 0.00316 µM) was 28.6% and the viability, T/C (second compound 3.16 µM, first compound 0.01 µM) was 25.6%. The viability, T/C (second compound 3.16 µM, first compound 0.0316 µM) was 30.5%, the viability, T/C (second compound 3.16 µM, first compound 0.1 µM) was 31.7% and the viability, T/C (second compound 10 µM, first compound 0.000316 µM) was 30%. For the same compound, the viability, T/C (second compound 10 µM, first compound 0.001 µM) was 41.7%, the viability, T/C (second compound 10 µM, first compound 0.00316 µM) was 26.4% and the viability, T/C (second compound 10 µM, first compound 0.01 µM) was 26.3%. It also gave a viability, T/C (second compound 10 µM, first compound 0.0316 µM) of 32.9% and a viability, T/C (second compound 10 µM, first compound 0.1 µM) of 36.8%.
